Measured values as given in the pKa sets of Baltruschat and Czodrowski (2020).
Where a SMILES comes first, the peptide text is derived from it.

Conditions: acidic group

Compound | pKa
CC1(C)CC(=O)C(C=O)C(=O)C1 | 3.65
O=C([O-])[C@@H]1CC[C@@H](C(=O)O)[Se][Se]1 | 3.67
O=C(O)c1c2ccccc2[nH+]c2ccccc12 | 3
Nc1ccc(B(O)O)c([N+](=O)[O-])c1 | 9.64
CCc1n[nH]c(CC)n1 | 10.2
Cc1cc(Cc2cc([N+](=O)[O-])ccc2O)cc(C)c1O | 7.12
O=C([O-])c1cccc2ccc(O)cc12 | 9.6
Oc1cccc(Cl)c1Cl | 7.71
CC1CCC[C@H](C(C)C(=O)O)C1 (some centres not stated) | 4.59
COc1c(C)cc2c(c1C(=O)O)COC2 | 3.13
CCC1(c2ccccc2)C(=O)NC(=S)NC1=O | 6.3
O=C(NO)c1ccccc1 | 8.71
Cc1ncc2c(c1O)C(=O)OC2 | 7.05
O=C(O)c1ccc(OCc2ccccc2)cc1 | 4.44
[NH-]S(=O)(=O)c1nnc(Nc2ccccc2)s1 | 11.1
COc1ccc2[nH]c3c(C)nccc3c2c1 | 14.6
C[C@@H]1[NH2+][C@H](CCCCCCCC(=O)O)CC[C@@H]1O | 4.6
Oc1ccc2ncccc2c1 | 8.82
Cc1cnnc2c(O)cccc12 | 8.34
Cc1cc(NS(=O)(=O)c2ccc(N)cc2)nc(C)n1 | 7.49
On1nnc2cc(Cl)ccc21 | 4.18
O=C(O)Cc1ccoc1 | 4.07
Cc1cc(=O)oc2cc(O)c(Cl)cc12 | 6.1
CC(=O)N[C@H]1CONC1=O | 5.8
O=C1C(O)=C(c2ccccc2)C(=O)c2ccccc21 | 4.35

Compound | pKa
O=P([O-])(O)C([NH2+]Cc1ccncc1)c1ccccc1O (configuration not stated) | 5.2
Cn1cnc2nc([O-])[nH]c(=S)c21 | 12.1
Cc1nnn[nH]1 | 5.52
Cc1c(O)cccc1C(=O)O | 3.83
O=[N+]([O-])Cc1ccccc1 | 6.77
O=C(O)CSc1ccc([N+](=O)[O-])cc1 | 3.2
CC1=CC(=O)CC(=O)O1 | 5
[O-]c1ccccc1/C=N/O | 12.1
O=C(O)c1ccccc1-c1nnn[nH]1 | 2.9
O=C([O-])C[NH+](CCNS(=O)(=O)c1ccccc1)CC(=O)[O-] | 7.82
Cc1ccc([N+](C)(C)C)cc1O | 8.2
Cc1csc(S(N)(=O)=O)n1 | 8.35
N#CC(C#N)=NNc1ccccc1C(=O)O | 6.7
Cc1cc(C)[nH]n1 | 15
COc1cc2c(O)cc(C)[nH+]c2c2c(C)c(C)oc12 | 2.91
O=C(O)C1CCCC1 | 4.99
N#Cc1ccccc1O | 7.32
O=P1(O)CCCC1 | 2.51
Oc1ccc2cc(I)ccc2c1 | 9.23
O=S(=O)([O-])c1cc(O)c2[nH]ncc2c1 | 8
Oc1nc(C(F)(F)F)nc2[nH+]c[nH]c12 | 1.1
Cc1ccccc1S(=O)O | 1.47
C[NH+]1C[C@H](C(=O)O)C[C@@]2(O)c3cccc4[nH]cc(c34)C[C@@H]12 | 3.42
CC(C)(/C=C/C(=O)O)c1cc(Br)ccc1O | 4.46

Same assay, conditions: basic group

Compound | pKa
NCCc1cccnc1 | 9.44
C[C@@H]1CCC[C@H](C)N1 | 11
CN/C=[NH+]/c1cccc(-c2csc(N=C(N)N)n2)c1 | 6.29
CCC[C@H]1NC(C(=O)[O-])CS1 (some centres not stated) | 6.25
C[C@@H](CC(C#N)(c1ccccc1)c1ccccc1)N(C)C | 8.31
COc1ccc(S(=O)(=O)NCCCN2CCOCC2)c(OC)c1OC | 6.76
N[C@H]1C[C@@H]1N | 8.82
O=C([O-])CN=C1CCCCC1 | 9.48
CNc1nc(NC)c2cn[nH]c2n1 | 6.08
Cc1ccn(-c2cccc[nH+]2)n1 | -3.9
COc1ccc2[nH]c3c(C)nccc3c2c1 | 7.09
c1ccc(-c2ccc3ccc4cccnc4c3n2)cc1 | 4.9
CCN(CC)CC(=O)NC1c2ccccc2-c2ccccc21 | 7.98
OCn1cnc2ccccc21 | 5.44
CCCCOC(=N)c1ccccc1 | 6.09
CN(CCCN)CCCN | 10.4
CCC(C)(CC)Nc1ccccc1 | 6.32
Oc1ccc2ncccc2c1 | 5.26
COc1ccccc1N | 4.51
Cc1cnnc2c(O)cccc12 | 3.18
Cc1cc(Cl)n(C)c2nc3ccccc3c1-2 | 7.45
C[C@H](N)[C@H](O)c1ccccc1 | 8.81
Nc1ccccc1Cl | 2.64
Cc1ccc2ccc(C)nc2c1 | 5.01
N=C(N)N(c1ccccc1)c1ccccc1 | 10.4

Compound | pKa
O=[N+]([O-])c1cccc2nc3ccccc3c(NCCCO)c12 | 7.55
Nc1ccc(/N=N/c2ccccc2)cc1 | 2.82
Clc1ccc(C2NCCS2)cc1 (configuration not stated) | 5.01
Nc1cccc(S(N)(=O)=O)c1 | 2.87
CNc1ccccc1 | 4.8
CC1=Nc2ccc([N+](=O)[O-])cc2N=C(C)C1 | 4.95
COC(=O)c1ccc(N(C)C)cc1 | 2.61
CCCC1N=C(N)N=C(Nc2ccc(SC)cc2)N1 (configuration not stated) | 10.6
CN(C)c1ccc(/N=N/c2ccccc2)cc1 | 2.85
O=P([O-])(O)C([NH2+]Cc1ccncc1)c1ccccc1O (configuration not stated) | 3.15
CC1NCCC[NH2+]1 | 7.19
Cc1n[nH]c(C)c1Cl | 2.23
Cc1ccccc1/C(=N\CCC[NH+](C)C)c1ccccc1-c1ccccc1 | 4.67
C1N2CN3CN1CN(C2)C3 | 4.95
NCc1cccc(O)c1 | 9.06
COc1cc(N)cc(C(=O)N[C@@H]2C[C@H]3CC[C@@H](C2)N3Cc2ccccc2)c1OC | 9.07
CC(C)CCNCCC(C)C | 10.9
CCCN(CCC)CC(=O)NC1c2ccccc2-c2ccccc21 | 7.28
CC[NH+](CC)CCCC(C)Nc1ccnc2cc(Br)ccc12 (configuration not stated) | 8.1
CCN(CC)c1ccccc1 | 6.6
CCOCCN(CCOCC)c1ccccc1 | 4.1
N[C@H]1CCCCC[C@@H]1O | 9.35
O=[N+]([O-])c1cccc2cn[nH]c12 | -0.83
Nc1nc2ccccc2c2ccccc12 | 7.31
O=C([O-])CN(CC(=O)[O-])Cc1nc2ccccc2[nH]1 | 6.87

Compound | pKa
FC(F)(F)c1ccc2cccnc2c1 | 3.16
Cc1cc(-c2ccc(N)c(C)c2)ccc1N | 4.64
CC(=O)Nc1ccc2cc3ccccc3nc2c1 | 5.6
c1ccc(Cn2ccnc2)cc1 | 6.66
CNCCC#N | 8.1
Nc1ccc(Cl)c2ccccc12 | 3.4
CCOCCn1c(N2CCCN(CCCCn3cc(C(=O)[O-])cn3)CC2)nc2ccccc21 | 8.5
N#CC(C#N)=NNc1ccccc1C(=O)O | -0.96
[NH3+]CCC(=O)N[C@@H](Cc1c[nH]cn1)C(=O)[O-] | 6.89
N[C@@H](Cc1c[nH]cn1)C(=O)NCC(=O)[O-] (H-His-Gly-OH) | 7.82
Oc1ccccc1CN1CCCNCCCNCCC1 | 9.87
Cc1cc(C(c2ccc(N)cc2)c2ccc([NH3+])cc2)ccc1[NH3+] | 2.6
CC(C)(C)NCCO | 10.1
Cc1cc(C)[nH]n1 | 4.32
NOCc1ccc(Cl)cc1 | 4.22
C#CCCCCCCN | 10.7
Cc1ccc(-c2ncc(-c3ccc(Cl)cc3)o2)cc1 | 0.88
C/C=C1/CN2CC[C@]34C(=C(C(=O)OC)[C@H]1C[C@H]23)Nc1ccccc14 | 7.46
CC(O)CNCC[NH3+] (configuration not stated) | 6.94
Cc1cc([C@@H](N)CO)c(O)c([C@@H](N)CO)c1 | 9
CC(C(O)c1ccccc1)N(C)C (configuration not stated) | 9.3
CN(C)CCC(c1ccccc1)c1ccccn1 (configuration not stated) | 9.29
CN(CO)c1ccc(Cl)cc1 | 3.02
